Measurements from patent US10837909B2, “Super-resolution fluorescent imaging probe” (The University of Tokyo, priority 2015, dated 2020).
Values belong to the compound of their own block, whether it stands above or below them.

Key:
[1] = Measurement of the fluorescence quantum yield; format: physicochemical; conditions: 1 μM probe, 1% DMSO aqueous solution, pH 7.4 (200 mM sodium phosphate buffer)
Method: Fluorescence quantum yield of the probe compounds according to the present invention was measured. The solution conditions were 1 μM probe compound, 1% DMSO aqueous solution, and pH 7.4 (200 mM sodium phosphate buffer).

[2] = Laser flash photolysis: nucleophilic addition reaction rate constant and time constant with glutathione; format: physicochemical; conditions: pH 7.4, 10 mM sodium phosphate buffer, 295 K
Method: Change over time of transient absorption of the probe compounds of the present invention at various glutathione concentrations was measured using laser flash photolysis, and a nucleophilic addition reaction rate constant k and a nucleophilic addition reaction rime constant T in the nucleophilic addition-dissociation equilibrium reaction between glutathione and the probe compounds of the present invention were calculated. The solution conditions were […] aqueous solution and pH 7.4 (10 mM sodium phosphate buffer). A measurement condition was 295 K and a light source was a 10 mJ/pulse XeCl excimer laser ([…]).

Structure (SMILES): CN(C)c1ccc2c(c1)[Si](C)(C)C1=CC(=[N+](C)C)C=CC1=C2 [Compound 5]
Fluorescence quantum yield [1]: 0.39
k (nucleophilic addition reaction rate constant) ([2]; glutathione 0.1 mM): 14.3 s⁻¹
τ (nucleophilic addition reaction time constant) ([2]; glutathione 0.1 mM): 69.9 ms
k (nucleophilic addition reaction rate constant) ([2]; glutathione 0.5 mM): 95.8 s⁻¹
τ (nucleophilic addition reaction time constant) ([2]; glutathione 0.5 mM): 10.4 ms
k (nucleophilic addition reaction rate constant) ([2]; glutathione 1 mM): 176.2 s⁻¹
τ (nucleophilic addition reaction time constant) ([2]; glutathione 1 mM): 5.67 ms
k (nucleophilic addition reaction rate constant) ([2]; glutathione 5 mM): 976 s⁻¹
τ (nucleophilic addition reaction time constant) ([2]; glutathione 5 mM): 1.02 ms
k (nucleophilic addition reaction rate constant) ([2]; glutathione 10 mM): 2290 s⁻¹
τ (nucleophilic addition reaction time constant) ([2]; glutathione 10 mM): 0.436 ms

Structure (SMILES): CN(C)c1ccc2c(c1)[Si](C)(C)C1=C/C(=[N+](\C)CCCC(=O)ON3C(=O)CCC3=O)C=CC1=C2 [Compound 17]
Fluorescence quantum yield [1]: 0.46

Structure (SMILES): CN(C)c1ccc2c(c1)[Si](C)(C)C1=C/C(=[N+](\C)CCCC(=O)O)C=CC1=C2 [Compound 12]
Fluorescence quantum yield [1]: 0.46
k (nucleophilic addition reaction rate constant) ([2]; glutathione 0.1 mM): 7.49 s⁻¹
τ (nucleophilic addition reaction time constant) ([2]; glutathione 0.1 mM): 134 ms
k (nucleophilic addition reaction rate constant) ([2]; glutathione 0.5 mM): 42.8 s⁻¹
τ (nucleophilic addition reaction time constant) ([2]; glutathione 0.5 mM): 23.4 ms
k (nucleophilic addition reaction rate constant) ([2]; glutathione 1 mM): 75.6 s⁻¹
τ (nucleophilic addition reaction time constant) ([2]; glutathione 1 mM): 13.2 ms
k (nucleophilic addition reaction rate constant) ([2]; glutathione 5 mM): 444 s⁻¹
τ (nucleophilic addition reaction time constant) ([2]; glutathione 5 mM): 2.25 ms
k (nucleophilic addition reaction rate constant) ([2]; glutathione 10 mM): 1080 s⁻¹
τ (nucleophilic addition reaction time constant) ([2]; glutathione 10 mM): 0.93 ms

Structure (SMILES): C[Si]1(C)C2=CC(=N)C=CC2=C(c2ccccc2)c2ccc(N)cc21 [Compound 2]
k (nucleophilic addition reaction rate constant) ([2]; glutathione 0.5 mM): 1.21 s⁻¹
τ (nucleophilic addition reaction time constant) ([2]; glutathione 0.5 mM): 823 ms
k (nucleophilic addition reaction rate constant) ([2]; glutathione 1 mM): 2.05 s⁻¹
τ (nucleophilic addition reaction time constant) ([2]; glutathione 1 mM): 487 ms
k (nucleophilic addition reaction rate constant) ([2]; glutathione 5 mM): 11.0 s⁻¹
τ (nucleophilic addition reaction time constant) ([2]; glutathione 5 mM): 90.7 ms
k (nucleophilic addition reaction rate constant) ([2]; glutathione 10 mM): 25.0 s⁻¹
τ (nucleophilic addition reaction time constant) ([2]; glutathione 10 mM): 40.1 ms

Fluorescence quantum yield [1]: 0.69
Structure (SMILES): CC1(C)C2=C/C(=N/CCCC(=O)O)C=CC2=Cc2ccc(N)cc21 [Compound 32]
k (nucleophilic addition reaction rate constant) ([2]; glutathione 0.1 mM): 15.8 s⁻¹
τ (nucleophilic addition reaction time constant) ([2]; glutathione 0.1 mM): 63.1 ms
k (nucleophilic addition reaction rate constant) ([2]; glutathione 0.5 mM): 61.7 s⁻¹
τ (nucleophilic addition reaction time constant) ([2]; glutathione 0.5 mM): 16.2 ms
k (nucleophilic addition reaction rate constant) ([2]; glutathione 1 mM): 106 s⁻¹
τ (nucleophilic addition reaction time constant) ([2]; glutathione 1 mM): 9.45 ms
k (nucleophilic addition reaction rate constant) ([2]; glutathione 5 mM): 592 s⁻¹
τ (nucleophilic addition reaction time constant) ([2]; glutathione 5 mM): 1.69 ms
k (nucleophilic addition reaction rate constant) ([2]; glutathione 10 mM): 1410 s⁻¹
τ (nucleophilic addition reaction time constant) ([2]; glutathione 10 mM): 0.71 ms

Structure (SMILES): CN(C)c1ccc2c(c1)[Si](C)(C)C1=C/C(=[N+](\C)CCCC(=O)NCc3ccc(COc4nc(N)nc5[nH]cnc45)cc3)C=CC1=C2 [Compound 14]
Fluorescence quantum yield [1]: 0.27

Fluorescence quantum yield [1]: 0.70
Structure (SMILES): CC1(C)C2=CC(=N)C=CC2=Cc2ccc(N)cc21 [Compound 28]
k (nucleophilic addition reaction rate constant) ([2]; glutathione 0.1 mM): 21.1 s⁻¹
τ (nucleophilic addition reaction time constant) ([2]; glutathione 0.1 mM): 47.5 ms
k (nucleophilic addition reaction rate constant) ([2]; glutathione 0.5 mM): 195 s⁻¹
τ (nucleophilic addition reaction time constant) ([2]; glutathione 0.5 mM): 5.12 ms
k (nucleophilic addition reaction rate constant) ([2]; glutathione 1 mM): 371 s⁻¹
τ (nucleophilic addition reaction time constant) ([2]; glutathione 1 mM): 2.69 ms
k (nucleophilic addition reaction rate constant) ([2]; glutathione 5 mM): 2170 s⁻¹
τ (nucleophilic addition reaction time constant) ([2]; glutathione 5 mM): 0.46 ms
k (nucleophilic addition reaction rate constant) ([2]; glutathione 10 mM): 5260 s⁻¹
τ (nucleophilic addition reaction time constant) ([2]; glutathione 10 mM): 0.19 ms

Structure (SMILES): CN(C)c1ccc2c(c1)[Si](C)(C)C1=C/C(=[N+](\C)CCCC(=O)NCCOCCOCCCCCCCl)C=CC1=C2 [Compound 16]
Fluorescence quantum yield [1]: 0.49
